Assay results from US8119624B2, “Fused phenyl amido heterocyclic compounds” (Pfizer Inc., priority 2006, dated 2012).
Like-named read-outs stand apart in the source and are kept apart here.

Molecular target: T1, Full-length glucokinase (beta cell isoform) (Homo sapiens, UniProt P35557)
T1 construct: Full-length glucokinase (beta cell isoform) was His-tagged at N-terminus; His tag (N); made in house
T1 sequence (P35557 1-465): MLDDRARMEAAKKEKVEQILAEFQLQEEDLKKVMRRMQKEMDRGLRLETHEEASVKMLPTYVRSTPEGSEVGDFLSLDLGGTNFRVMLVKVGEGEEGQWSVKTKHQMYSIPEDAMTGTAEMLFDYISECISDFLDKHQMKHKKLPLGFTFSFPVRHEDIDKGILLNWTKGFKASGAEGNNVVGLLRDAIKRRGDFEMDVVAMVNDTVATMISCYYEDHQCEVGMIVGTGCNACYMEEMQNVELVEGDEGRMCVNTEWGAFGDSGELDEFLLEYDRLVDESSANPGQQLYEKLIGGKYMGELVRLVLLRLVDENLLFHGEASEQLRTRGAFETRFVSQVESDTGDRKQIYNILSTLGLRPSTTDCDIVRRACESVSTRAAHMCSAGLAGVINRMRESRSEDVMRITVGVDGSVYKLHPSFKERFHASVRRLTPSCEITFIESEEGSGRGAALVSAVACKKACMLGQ
Test: Glucokinase biochemical assay (PK/LDH-coupled, NADH depletion at 340 nm): % activation, EC50, % max activation
Conditions: 5 mM glucose; for activation at 10 µM: read-out: % Activation at 10 uM; for EC50: GK activation, read-out: EC50; for Emax: read-out: % Max Activation
In short: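 Activation expressed as (Va/Vo−1)×100, where initial rates with and without compound come from NADH depletion at 340 nm over 200–900 s. Enzyme is His-tagged human beta-cell GK, full length, run at room temperature in HEPES buffer with 1 mM ATP and 5 mM glucose. DMSO 1%.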

[1] = 10 uM compound, % Activation=(Va/Vo−1)×100
[2] = compound at 10 uM, 1 mM ATP, room temperature

| SMILES | activation at 10 µM [1] | EC50 | Emax (fitted maximum activation) | activation at 10 µM [2] | % Activation at 10 uM [1] | % Max Activation (fitted maximum activation) |
| --- | --- | --- | --- | --- | --- | --- |
| Cc1ccc(NC(=O)c2cc(Oc3ccc(S(C)(=O)=O)cc3)c3sccc3c2)nc1 [Example 363, 7-(4-Methanesulfonyl-phenoxy)-benzo[b]thiophene-5-carboxylic acid(5-methyl-pyridin-2-yl)-amide] | 52.3% | 7650 nM | 99% | – | – | – |
| Cc1ccc(NC(=O)c2cc(Oc3ccc(C(=O)N(C)C)c(F)c3)c3cc(C)oc3c2)nc1 [Example 273, 4-(4-(Dimethylcarbamoyl)-3-fluorophenoxy)-2-methyl-N-(5-methylpyridin-2-yl)benzofuran-6-carboxamide] | 12.7% | – | – | – | – | – |
| Cn1ccc(NC(=O)c2cc(Oc3ccc(S(=O)(=O)C4CC4)c(F)c3)c3c(c2)OC(C)(C)C3)n1 [Example 141, 4-(4-Cyclopropanesulfonyl-3-fluoro-phenoxy)-2,2-dimethyl-2,3-dihydro-benzofuran-6-carboxylic acid (1-methyl-1H-pyrazol-3-yl)-amide] | 173% | 110 nM | 216% | – | – | – |
| Cn1ccc(NC(=O)c2cc(Oc3ccc(C(=O)NCCO)c(F)c3)c3c(c2)OC(C)(C)C3)n1 [Example 72, 4-[3-Fluoro-4-(2-hydroxy-ethylcarbamoyl)-phenoxy]-2,2-dimethyl-2,3-dihydro-benzofuran-6-carboxylic acid(1-methyl-1H-pyrazol-3-yl)-amide] | 182% | 950 nM | 161% | – | – | – |
| Cc1ccc(NC(=O)c2cc(Oc3ccc(C(=O)N(C)C)nc3)c3cc(C)oc3c2)nc1 [Example 277, N,N-Dimethyl-5-[(2-methyl-6-{[(5-methylpyridin-2-yl)amino]-carbonyl}-1-benzofuran-4-yl)oxy]pyridine-2-carboxamide] | 34.2% | – | – | – | – | – |
| CCc1nnc(NC(=O)c2cc(Oc3ccc(S(C)(=O)=O)cc3)c3c(c2)OC(C)(C)C3)s1 [Example 27, 4-(4-Methanesulfonyl-phenoxy)-2,2-dimethyl-2,3-dihydro-benzofuran-6-carboxylic acid(5-ethyl-[1,3,4]thiadiazol-2-yl)-amide] | 112% | 1100 nM | 112% | – | – | – |
| Cc1cc2c(Oc3ccc(S(C)(=O)=O)cn3)cc(C(=O)Nc3cnn(C)n3)cc2o1 [Example 282, 2-Methyl-N-(2-methyl-2H-1,2,3-triazol-4-yl)-4-(5-(methylsulfonyl)pyridin-2-yloxy)benzofuran-6-carboxamide] | 140% | > 10000 nM | – | – | – | – |
| Cc1ccc(NC(=O)c2cc(Oc3ccc(C(=O)N4CCC4)c(F)c3)c3c(c2)OC(CO)C3)nc1 (centres unmarked) [Example 203, 4-[4-(Azetidine-1-carbonyl)-3-fluoro-phenoxy]-2-hydroxymethyl-2,3-dihydro-benzofuran-6-carboxylic acid (5-methyl-pyridin-2-yl)-amide] | 82.6% | 810 nM | 91% | – | – | – |
| CCOc1cc(C(=O)Nc2ccn(C)n2)cc2c1CC(C)(C)O2 [Example 92, 4-Ethoxy-2,2-dimethyl-2,3-dihydro-benzofuran-6-carboxylic acid (1-methyl-1H-pyrazol-3-yl)-amide] | 87% | 9500 nM | 164% | – | – | – |
| Cn1ccc(NC(=O)c2cc(Oc3ccc(S(C)(=O)=O)cc3)c3cc(C(=O)N4CCC4)oc3c2)n1 [Example 291, 2-(Azetidin-1-ylcarbonyl)-N-(1-methyl-1H-pyrazol-3-yl)-4-[4-(methylsulfonyl)-phenoxy]-1-benzofuran-6-carboxamide] | 12.7% | – | – | – | – | – |
| Cc1ccc(NC(=O)c2cc(Oc3ccc(C(=O)N(C)C)cc3)c3occc3c2)nc1 [Example 335, 7-{4-[(Dimethylamino)carbonyl]phenoxy}-N-(5-methylpyridin-2-yl)-1-benzofuran-5-carboxamide] | 26% | – | – | – | – | – |
| Cc1cc2c(Oc3ccc(S(=O)(=O)N4CCC4)cc3)cc(C(=O)Nc3ccc(Cl)cn3)cc2o1 [Example 300, 4-(4-(Azetidin-1-ylsulfonyl)phenoxy)-N-(5-chloropyridin-2-yl)-2-methyl-benzofuran-6-carboxamide] | 53.4% | 710 nM | 56% | – | – | – |
| CC(C)N1Cc2c(Oc3ccc(S(C)(=O)=O)cc3)cc(C(=O)Nc3ccn(C)n3)cc2C1=O [Example 384, 2-Isopropyl-N-(1-methyl-1H-pyrazol-3-yl)-7-(4-(methylsulfonyl)-phenoxy)-3-oxoisoindoline-5-carboxamide] | – | – | – | 33.2% | – | – |
| Cn1ccc(NC(=O)c2cc(Oc3ccc(S(C)(=O)=O)c(F)c3)c3c(c2)OC(C)(CO)C3)n1 (centres unmarked) [Example 232, 4-(3-Fluoro-4-methanesulfonyl-phenoxy)-2-hydroxymethyl-2-methyl-2,3-dihydro-benzofuran-6-carboxylic acid (1-methyl-1H-pyrazol-3-yl)-amide] | 188% | 390 nM | 184% | – | – | – |
| Cn1ccc(NC(=O)c2cc(Oc3ccc(S(C)(=O)=O)c(Cl)c3)c3c(c2)OC(C)(C)C3)n1 [Example 139, 4-(3-Chloro-4-methanesulfonyl-phenoxy)-2,2-dimethyl-2,3-dihydro-benzofuran-6-carboxylic acid (1-methyl-1H-pyrazol-3-yl)-amide] | 242% | 550 nM | 254% | – | – | – |
| Cc1ccc(NC(=O)c2cc3c(c(Oc4ccc(S(C)(=O)=O)cc4)c2)CCO3)nc1 [Example 8, 4-(4-Methanesulfonyl-phenoxy)-2,3-dihydro-benzofuran-6-carboxylic acid(5-methyl-pyridin-2-yl)-amide] | 127% | 2800 nM | 100% | – | – | – |
| CN(C)C1CN(C(=O)c2ccc(Oc3cc(C(=O)Nc4ccn(C)n4)cc4c3CC(C)(C)O4)cc2F)C1 [Example 57, 4-[4-(3-Dimethylamino-azetidine-1-carbonyl)-3-fluoro-phenoxy]-2,2-dimethyl-2,3-dihydro-benzofuran-6-carboxylic acid(1-methyl-1H-pyrazol-3-yl)-amide] | 131% | 643 nM | 148% | – | – | – |

The remaining lines, values ahead:

| activation at 10 µM [1] | EC50 | Emax (fitted maximum activation) | activation at 10 µM [2] | % Activation at 10 uM [1] | % Max Activation (fitted maximum activation) | SMILES |
| --- | --- | --- | --- | --- | --- | --- |
| 98.1% | 470 nM | 97% | – | – | – | CN(C)C(=O)c1ccc(Oc2cc(C(=O)Nc3cnccn3)cc3c2CC(C)(C)O3)cc1 [Example 151, 4-(4-Dimethylcarbamoyl-phenoxy)-2,2-dimethyl-2,3-dihydro-benzofuran-6-carboxylic acid pyrazin-2-ylamide] |
| 82.5% | > 10000 nM | – | – | – | – | Cn1ccc(NC(=O)c2cc(Oc3ccc(S(C)(=O)=O)cc3)c3ccoc3c2)n1 [Example 343] |
| 127% | 58 nM | 135% | – | – | – | Cn1ccc(NC(=O)c2cc(Oc3ccc(C(=O)N4CCC4)c(F)c3)c3c(c2)OC(C)(CO)C3)n1 (centres unmarked) [Example 241, 4-[4-(Azetidine-1-carbonyl)-3-fluoro-phenoxy]-2-hydroxymethyl-2-methyl-2,3-dihydro-benzofuran-6-carboxylic acid (1-methyl-1H-pyrazol-3-yl)-amide] |
| – | – | – | 32.9% | – | – | CC(C)CN1CCc2c(Oc3ccc(S(C)(=O)=O)cc3)cc(C(=O)Nc3ccn(C)n3)cc2C1=O [Example 389, 2-Isobutyl-N-(1-methyl-1H-pyrazol-3-yl)-5-[4-(methylsulfonyl)-phenoxy]-1-oxo-1,2,3,4-tetrahydroisoquinoline-7-carboxamide] |
| 204% | 350 nM | 189% | – | – | – | CCNC(=O)c1ncc(Oc2cc(C(=O)Nc3ccn(C)n3)cc3c2CC(C)(C)O3)cc1F [Example 177, 5-[2,2-Dimethyl-6-(1-methyl-1H-pyrazol-3-ylcarbamoyl)-2,3-dihydro-benzofuran-4-yloxy]-3-fluoro-pyridine-2-carboxylic acid ethylamide] |
| 11.2% | – | – | – | – | – | Cc1ccc(NC(=O)c2cc(Oc3ccc(S(C)(=O)=O)cc3)c3c(C)csc3c2)nc1 [Example 350, 3-Methyl-N-(5-methylpyridin-2-yl)-4-[4-(methylsulfonyl)-phenoxy]-1-benzothiophene-6-carboxamide] |
| – | 66.1 nM | – | – | 170% | 171% | Cn1ccc(NC(=O)c2cc(Oc3ccc(C(=O)N4CCC4)c(F)c3)c3c(c2)OC(C)(C)C3)n1 [Example 33, 4-[4-(Azetidine-1-carbonyl)-3-fluoro-phenoxy]-2,2-dimethyl-2,3-dihydro-benzofuran-6-carboxylic acid(1-methyl-1H-pyrazol-3-yl)-amide] |
| 112% | 5300 nM | 148% | – | – | – | CC(Oc1cc(C(=O)Nc2ccn(C)n2)cc2c1CC(C)(C)O2)c1ccccn1 (centres unmarked) [Example 81, 2,2-Dimethyl-4-(1-pyridin-2-yl-ethoxy)-2,3-dihydro-benzofuran-6-carboxylic acid (1-methyl-1H-pyrazol-3-yl)-amide] |
